Consider one compound from US9475779B2, “Substituted bicyclic dihydropyrimidinones and their use as inhibitors of neutrophil elastase activity” (priority 2014, dated 2016).

For orientation: IC50 means the concentration needed to halve the response being measured. The term solubility denotes the dissolved amount per volume that the medium holds. A lower solubility goes with little dissolved substance. One may read the inhibition as the drop in the measured response relative to a control, in per cent. Low values mean little suppression, high ones strong suppression. A word on the EC50: it is the concentration at which the effect is half-maximal. The low end stands for a more potent agent, the high end for a less potent agent.

The target in data set [1] is cytochrome P450 2C9 (Homo sapiens (Human), UniProt P11712). Description: biochemical.
Data set [2] relates to human hepatocytes. As to the kind of experiment: Metabolic stability with human hepatocytes. As to conditions: well stirred model. It counts as in vitro ADME. As for the experimental part:
Assay for the Determination of Metabolic Stability with Human Hepatocytes
The metabolic degradation of the test compound is assayed in a human hepatocyte suspension. Human hepatocytes (typically cryopreserved) are incubated in an appropriate buffer system (e.g. Dulbecco's modified eagle medium plus […]/500 mL, 2.5 mg insulin/500 mL and 3.75 mg/500 mL hydrocortison) containing 5% species serum. Following a (typically) 30 min preincubation in an incubator (37° C., 10% CO2), 5 μl of test compound solution (80 μM; from 2 mM stock solution in DMSO diluted 1:25 with medium) are added into 395 μl hepatocyte suspension (cell density in the range 0.25-5*10^6 cells/mL, typically 1*10^6 cells/mL; final concentration of test compound 1 μM, final DMSO concentration 0.05%). The cells are incubated for six hours (incubator, orbital shaker) and samples (25 μl) are taken at 0, 0.5, 1, 2, 4 and 6 hours. Samples are transferred into acetonitrile and pelleted by centrifugation (5 min). […] The decline of parent compound is analyzed by LC-MS/MS.
The intrinsic clearance CL_[…] is calculated as follows: CL_[…]=Dose/AUC=(C0/CD)/(AUD+clast/k)*1′000/60 (C0: initial concentration in the incubation […], CD: cell density of vital cells [10^6 cells/mL], AUD: area under the data [μM*h], clast: concentration of last data point [μM], k: slope of the regression line for parent decline [h^−1]) […]

In data set [3] the test system is Caco-2 cells. Description: in vitro. The format is in vitro ADME. As to conditions: pH 7.2.
In data set [4] the target is T1, neutrophil elastase (Homo sapiens (Human), UniProt P08246). Description: biochemical. The format is biochemical. The conditions noted are these: read-out: IC50.
Protocol: Human Neutrophil Elastase Assay
All other materials were of the highest grade commercially available.
The following buffers were used: Compound buffer: 100 mM Tris, 500 mM NaCl, adjusted to pH 7.5; Assay buffer: 100 mM Tris, 500 mM NaCl, adjusted to pH 7.5, containing 0.01% BSA.
Assay conditions: Test compounds were prediluted in DMSO and subsequently in compound buffer (5% DMSO final). […] After inactivation of the enzyme, fluorescence intensities were measured at 380 nm excitation and 460 nm emission wavelengths.
Each plate contains wells with a high value control (DMSO+enzyme+substrate) and wells with a low value control (DMSO+inactivated enzyme+substrate). IC50 values were estimated using a sigmoidal concentration response curve with variable slope. Means of low values were taken as 0%, means of high values as 100%.
Data set [5] deals with cytochrome P450 2C8 (Homo sapiens (Human), UniProt P10632). Description: biochemical.
The nature of data set [6]: physchem. The conditions noted are these: McIlvaine buffer pH 6.8 containing 2.5% DMSO, pH 6.8, aqueous buffer, kinetic from dmso stock, McIlvaine buffer pH 6.8, 2.5% DMSO, 24 h. It counts as physicochemical.
Data set [7] deals with hERG potassium channel (Homo sapiens (Human), UniProt Q12809). Description: in vitro.
Data set [8] addresses T1, neutrophil elastase. As to the kind of experiment: biochemical.
Data set [9] addresses cytochrome P450 2C19 (Homo sapiens (Human), UniProt P33261). As to the kind of experiment: biochemical.
Data set [10] in a line: Metabolic stability with human liver microsomes. It counts as in vitro ADME. As to conditions: human, pooled human liver microsomes, pH 7.6, pooled human liver microsomes, 1 μM test compound, 37° C.; read-out: t1/2 INVITRO.

In brackets after ≈: the same amount, converted by molar mass.

T1 sequence (P08246 whole entry, looked up): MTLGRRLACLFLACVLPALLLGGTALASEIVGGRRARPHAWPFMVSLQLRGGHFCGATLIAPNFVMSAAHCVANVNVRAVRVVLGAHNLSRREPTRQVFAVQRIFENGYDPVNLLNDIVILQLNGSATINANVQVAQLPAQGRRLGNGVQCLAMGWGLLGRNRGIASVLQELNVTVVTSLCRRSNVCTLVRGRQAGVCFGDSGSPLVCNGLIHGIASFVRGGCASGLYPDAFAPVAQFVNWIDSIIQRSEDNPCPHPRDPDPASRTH
Sequence of cytochrome P450 2C9 (P11712 whole entry, looked up): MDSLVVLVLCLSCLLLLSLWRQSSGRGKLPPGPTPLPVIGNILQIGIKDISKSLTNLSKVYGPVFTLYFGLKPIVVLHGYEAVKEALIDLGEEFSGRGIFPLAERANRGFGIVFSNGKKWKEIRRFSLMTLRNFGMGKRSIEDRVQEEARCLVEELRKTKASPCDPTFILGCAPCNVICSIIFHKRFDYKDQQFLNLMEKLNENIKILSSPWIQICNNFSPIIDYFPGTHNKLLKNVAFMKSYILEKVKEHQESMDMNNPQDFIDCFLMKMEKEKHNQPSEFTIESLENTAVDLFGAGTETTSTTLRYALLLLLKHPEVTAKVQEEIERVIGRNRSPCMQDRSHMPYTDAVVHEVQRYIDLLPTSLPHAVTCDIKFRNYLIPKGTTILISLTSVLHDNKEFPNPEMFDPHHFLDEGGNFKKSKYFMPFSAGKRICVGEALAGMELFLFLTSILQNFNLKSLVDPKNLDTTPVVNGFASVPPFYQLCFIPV
Sequence of cytochrome P450 2C19 (P33261 whole entry, looked up): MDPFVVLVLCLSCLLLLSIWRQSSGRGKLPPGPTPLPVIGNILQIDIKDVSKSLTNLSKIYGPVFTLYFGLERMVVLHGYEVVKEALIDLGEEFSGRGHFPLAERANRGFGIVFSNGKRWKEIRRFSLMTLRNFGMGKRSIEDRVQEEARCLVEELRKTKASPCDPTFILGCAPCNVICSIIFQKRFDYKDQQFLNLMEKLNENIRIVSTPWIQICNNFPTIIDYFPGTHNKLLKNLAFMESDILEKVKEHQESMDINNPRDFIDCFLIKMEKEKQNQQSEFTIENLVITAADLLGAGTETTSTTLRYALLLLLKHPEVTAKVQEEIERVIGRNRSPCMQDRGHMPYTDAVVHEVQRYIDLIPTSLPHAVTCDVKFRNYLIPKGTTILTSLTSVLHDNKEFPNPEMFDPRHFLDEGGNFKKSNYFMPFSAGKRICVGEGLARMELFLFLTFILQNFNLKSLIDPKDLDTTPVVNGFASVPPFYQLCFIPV
Sequence of cytochrome P450 2C8 (P10632 whole entry, looked up): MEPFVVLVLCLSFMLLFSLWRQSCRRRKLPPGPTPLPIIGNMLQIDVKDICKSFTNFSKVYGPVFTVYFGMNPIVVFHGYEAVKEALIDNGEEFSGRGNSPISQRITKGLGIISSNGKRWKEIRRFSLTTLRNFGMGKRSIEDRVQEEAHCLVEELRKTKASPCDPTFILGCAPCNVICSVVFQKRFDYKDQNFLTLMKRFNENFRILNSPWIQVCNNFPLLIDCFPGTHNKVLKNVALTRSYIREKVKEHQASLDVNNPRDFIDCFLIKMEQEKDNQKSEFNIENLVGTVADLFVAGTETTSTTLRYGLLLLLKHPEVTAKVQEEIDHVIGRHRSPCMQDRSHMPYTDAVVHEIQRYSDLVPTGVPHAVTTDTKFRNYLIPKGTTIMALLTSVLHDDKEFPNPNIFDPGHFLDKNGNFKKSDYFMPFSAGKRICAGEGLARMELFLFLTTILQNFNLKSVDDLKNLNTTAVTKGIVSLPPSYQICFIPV

Regarding `CN1C(=O)N(c2cccc(C(F)(F)F)c2)C2=C(C(=O)CC2)[C@H]1c1ccc(C#N)cc1[S+](C)[O-]` (single isomer, unassigned) [Example C.2A, 3-Methanesulfinyl-4-[3-methyl-2,5-dioxo-1-(3-trifluoromethyl-phenyl)-2,3,4,5,6,7-hexahydro-1H-cyclopentapyrimidin-4-yl]-benzonitrile], the IC50 in data set [1] was more than 50 µM; in [4] it was less than 0.001 µM; in data set [5] it was more than 50 µM; in [9], more than 50 µM. Further, the “predicted hepatic in vivo blood clearance” value in [2] is listed as 3 % human hepatic blood flow. In [3], the PEAB came out at 13 ×10⁻⁶ cm/s. In addition, the PEBA in data set [3] is 73 ×10⁻⁶ cm/s. The compound also yielded a solubility at 24 h in data set [6] of 58 µg/mL (≈ 122 µM). This compound came in with an inhibition at 10 µM in data set [7] of 7%. The same compound yielded an EC50 in data set [8] of 0.002 µM. The half-life at 1 μM in [10] was more than 2.17 h.
